Measured values published in publication PMC10495264 (Nature Cell Biology, 2023).
pIC50, pKi: −log10 of the molar value. Where “and” joins values, the source holds several entries; their conditions need not be identical. Equal entries are not always repeated.

Key:
Src = target: T1, Src (Homo sapiens, UniProt P12931); assay: Mammalian Src kinase activity assay (IVK, Glo1 substrate); assay type: biochemical; conditions: for In vitro kinase assay Src, p-Glo(Y316)/Glo, Mean: 0 mM = 1; for In vitro kinase assay Src, p-Glo(Y316)/Glo: Replicates 1-3, 0 mM = 1 (Ext. Fig. 10g)
T1 construct: purchased ProQinase 0200-0000-1
Method: In vitro assays for phosphorylation of Glo1 by Src were performed as described previously. […] The phosphorylation reaction was stopped by the addition of 2×Laemmli buffer and boiling the samples for 5 min at 95 °C. The samples were run on SDS–PAGE gels and immunoblotted for Src-dependent phosphorylation of Glo1 at Y316 using a homemade antibody.

mTORC1 = target: T2, mTORC1 (Homo sapiens, UniProt P42345); assay: Mammalian mTORC1 kinase activity assays (IVK, 4E-BP1 substrate); assay type: biochemical
T2 construct: endogenous mTORC1 complexes were purified from HEK293FT cells; endogenous in cells; host or cells: HEK293FT (immunoprecipitation of endogenous mTOR); the 4E-BP1 substrate was made in E. coli BL21 RP
Method: Following the last wash step with CHAPS IP wash buffer, the beads were washed once with kinase wash buffer (25 mM HEPES pH 7.4 and 20 mM KCl) and excess liquid was removed using a Hamilton syringe—the final bead volume was approximately 10 μl. Kinase reactions were prepared by adding 10 μl of 3×kinase assay buffer (75 mM HEPES KOH pH 7.4, 60 mM KCl and 30 mM MgCl2) to the beads. […] The reactions were incubated at 30 °C for 30 min, and stopped by the addition of one volume of 2×SDS loading buffer and boiling (5 min, 95 °C). […] Signals were quantified using the gel analysis tool of ImageJ and are shown as the phospho-4E-BP1^T37/46/4E-BP1 ratio.

[1] = target: T3, mTORC1 containing mTOR^K1218R; assay: mTORC1 IVK with SBP-tagged mTOR^K1218R and HA–Raptor; assay type: biochemical, human; conditions: presence or absence of 5 mM Mal-CoA
T3 construct: expressed in transfected cells; host or cells: HEK293FT
Method: Briefly, cells of a near-confluent well of a six-well plate were lysed in CHAPS IP buffer (50 mM Tris pH 7.5, 0.3% CHAPS detergent, 150 mM NaCl, 50 mM NaF, 2 mM Na-vanadate and 0.011 g ml^−1 β-glycerophosphate) supplemented with 1×PhosSTOP phosphatase inhibitors and 1×EDTA-free cOmplete protease inhibitors for 10 min on ice, and the samples were clarified by centrifugation (20,000g, 15 min, 4 °C). Each supernatant was split in three equal fractions and each fraction was incubated (4 °C with rotation) with 20 μl of pre-washed Streptavidin Sepharose (cat. no. 90100484, Cytiva) for 1 h. The beads were then washed three times with CHAPS IP wash buffer (50 mM Tris pH 7.5, 0.3% CHAPS, 150 mM NaCl and 50 mM NaF) and either used for IVK assays (‘Mammalian mTORC1 kinase activity assays’ section) or boiled in 2×SDS loading buffer (5 min, 95 °C) and analysed by SDS–PAGE and immunoblotting to assess the stability of the mTOR complex.
In vitro activity assays were performed as described earlier for endogenous mTOR complexes.
Endogenous mTOR was immunoprecipitated in the presence or absence of 1 mM Mal-CoA (added directly in the lysates 5 min previous to addition of the antibody). Co-immunoprecipitation of Raptor and mLST8 assayed by immunoblotting; n = 2 independent experiments. c, Mal-CoA inhibits mTORC1 independently from mTOR malonylation. […] Data are the mean ± s.d. (a) or mean ± s.e.m. […]

[2] = test system: total protein malonylation; assay: Lysine malonylation in yeast cells, Mal-K/Adh1 immunoblot; assay type: cell-based, Saccharomyces cerevisiae; conditions: cerulenin 20 μM, 2 h, wt Ctrl = 1, Fig. 3i
[3] = test system: Tor1 and Fas1 malonylation; assay: Malonylation of immunopurified HA-Tor1 and Fas1-HA (anti-Mal-K) from yeast cells; assay type: cell-based, Saccharomyces cerevisiae
Method: For the yeast co-immunoprecipitations experiments, cells were collected by filtration and immediately frozen in liquid nitrogen. […] Total cell extracts were recovered from the beads and cleared by centrifugation. At this stage, samples were taken for input analysis and denatured with a Laemmli-based sample buffer (350 mM Tris–HCl pH 6.8, 30% glycerol, 600 mM DTT, 10% SDS and 0.2 mg ml^−1 bromophenol blue). The cleared lysates (10–20 mg) were incubated for 2 h at 4 °C with magnetic beads pre-conjugated with anti-HA (cat. no. 88837, Pierce). The beads were then washed five times with high salt lysis buffer (50 mM Tris–HCl pH 7.5, 300 mM NaCl, 10% glycerol and 0.1% Nonidet P40) and eventually resuspended in 20 μl lysis buffer and 20 μl 2×Laemmli buffer.

TORC2 = TORC2 activity in yeast cells, p-Ypk1^T662/Ypk1 immunoblot; assay type: cell-based, Saccharomyces cerevisiae; conditions: cerulenin 20 μM, 2 h; for p-Ypk1(T662)/Ypk1, Mean: wt Ctrl = 1, Fig. 3f
[4] = test system: total protein malonylation; assay: Total protein malonylation (Mal-K immunoblot) in HEK293FT/HEK293T cells; assay type: cell-based, human
Method: For standard SDS–PAGE and immunoblotting experiments, cells from a well of a 12-well plate were lysed in 250 μl of ice-cold Triton lysis buffer (50 mM Tris pH 7.5, 1% Triton X-100, 150 mM NaCl, 50 mM NaF, 2 mM Na-vanadate and 0.011 g ml^−1 β-glycerophosphate) supplemented with 1×PhosSTOP phosphatase inhibitors (cat. no. 4906837001, Roche) and 1×cOmplete protease inhibitors (cat. no. 11836153001, Roche) for 10 min on ice. The samples were clarified by centrifugation (20,000g, 15 min, 4 °C) and the supernatants were boiled in 1×SDS sample buffer (5×SDS sample buffer: 350 mM Tris–HCl pH 6.8, 30% glycerol, 600 mM DTT, 12.8% SDS and 0.12% bromophenol blue). The band intensities were quantified using the ImageJ software.

TORC1 = TORC1 activity in yeast cells, p-Sch9^T737/Sch9 immunoblot; assay type: cell-based, Saccharomyces cerevisiae; conditions: for p-Sch9(T737)/Sch9 (relative TORC1 activity), Mean: yeast, untreated = 1, n = 4, Fig. 2c
Snf1 (yeast AMPK) = assay: Snf1 activation in yeast cells, p-Snf1^T210/His immunoblot; assay type: cell-based, Saccharomyces cerevisiae; conditions: cerulenin 20 μM, 2 h, wt Ctrl = 1, Fig. 3h
[5] = test system: RagC lysosomal localization; assay: Co-localization of RagC with LAMP2, confocal microscopy; assay type: cell-based, human; conditions: Ceru 4h, mean of individual cells (ED Fig. 8f); DMSO mean 0.563571
Mal-CoA levels = assay: fapR/fapOp-yeGFP Mal-CoA reporter system, GFP immunoblot; assay type: cell-based, Saccharomyces cerevisiae; conditions: yeast, untreated = 1, n = 4, Fig. 2b
HEK293T cells = assay: OPP incorporation assay (de novo protein synthesis); assay type: cell-based, human; conditions: cerulenin 50 μM, 4 h
Method: An OPP incorporation assay was used to test for de novo protein synthesis. […] The cells were subsequently washed with DPBS, trypsinized and fixed with ice-cold 70% ethanol for 30 min at −20 °C, followed by three washes with PBS containing 0.5% Tween-20. […] The samples were run in a Guava easyCyte HT flow cytometer (Millipore) and analysed using FlowJo (v10).

T1 sequence (P12931 whole entry): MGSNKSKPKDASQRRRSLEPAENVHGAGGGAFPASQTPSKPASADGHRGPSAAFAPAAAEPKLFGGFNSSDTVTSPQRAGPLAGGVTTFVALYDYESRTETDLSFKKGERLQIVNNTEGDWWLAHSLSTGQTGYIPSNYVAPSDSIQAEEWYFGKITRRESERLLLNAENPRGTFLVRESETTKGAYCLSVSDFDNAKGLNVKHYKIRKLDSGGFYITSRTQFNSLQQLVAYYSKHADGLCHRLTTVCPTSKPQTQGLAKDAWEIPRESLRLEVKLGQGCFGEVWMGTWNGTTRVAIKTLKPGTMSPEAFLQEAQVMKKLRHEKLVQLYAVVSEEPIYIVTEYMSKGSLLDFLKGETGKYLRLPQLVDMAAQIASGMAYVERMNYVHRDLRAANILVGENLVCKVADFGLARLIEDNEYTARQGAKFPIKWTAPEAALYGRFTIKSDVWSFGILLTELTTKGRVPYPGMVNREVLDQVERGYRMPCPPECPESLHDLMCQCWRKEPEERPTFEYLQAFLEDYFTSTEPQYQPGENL

CC(C)(COP(=O)(O)OP(=O)(O)OCC1OC(n2cnc3c(N)ncnc32)C(O)C1OP(=O)(O)O)C(O)C(=O)NCCC(=O)NCCSC(=O)CC(=O)O (stereo not shown) [Mal-CoA, malonyl-CoA]
pIC50 (Src): 2.52
In vitro kinase assay Src, p-Glo(Y316)/Glo, Mean (Src; Mal-CoA 0.1 mM): 0.9108
In vitro kinase assay Src, p-Glo(Y316)/Glo (Src; Mal-CoA 0.1 mM): 1.011 and 0.7856 and 0.936
In vitro kinase assay Src, p-Glo(Y316)/Glo, Mean (Src; Mal-CoA 0.5 mM): 0.93
In vitro kinase assay Src, p-Glo(Y316)/Glo (Src; Mal-CoA 0.5 mM): 1.127 and 0.8462 and 0.8162
In vitro kinase assay Src, p-Glo(Y316)/Glo, Mean (Src; Mal-CoA 1 mM): 0.7653
In vitro kinase assay Src, p-Glo(Y316)/Glo (Src; Mal-CoA 1 mM): 0.7803 and 0.7329 and 0.7827
In vitro kinase assay Src, p-Glo(Y316)/Glo, Mean (Src; Mal-CoA 2.5 mM): 0.5664
In vitro kinase assay Src, p-Glo(Y316)/Glo (Src; Mal-CoA 2.5 mM): 0.5574 and 0.682 and 0.4598
In vitro kinase assay Src, p-Glo(Y316)/Glo, Mean (Src; Mal-CoA 5 mM): 0.4682
In vitro kinase assay Src, p-Glo(Y316)/Glo (Src; Mal-CoA 5 mM): 0.5068 and 0.3824 and 0.5156
pIC50 (mTORC1): 3.64
In vitro mTORC1 assay, p-4E-BP1(T37/46)/4E-BP1, Mean (mTORC1; Fig. 8f, compound 0.01 mM, relative to 0 mM): 0.741
In vitro mTORC1 assay, p-4E-BP1(T37/46)/4E-BP1, Mean (mTORC1; Fig. 8f, compound 0.05 mM, relative to 0 mM): 0.7667
In vitro mTORC1 assay, p-4E-BP1(T37/46)/4E-BP1, Mean (mTORC1; Fig. 8f, compound 0.1 mM, relative to 0 mM): 0.821
In vitro mTORC1 assay, p-4E-BP1(T37/46)/4E-BP1, Mean (mTORC1; Fig. 8f, compound 0.5 mM, relative to 0 mM): 0.5457
In vitro mTORC1 assay, p-4E-BP1(T37/46)/4E-BP1, Mean (mTORC1; Fig. 8f, compound 1 mM, relative to 0 mM): 0.5376
In vitro mTORC1 assay, p-4E-BP1(T37/46)/4E-BP1, Mean (mTORC1; Fig. 8f, compound 2.5 mM, relative to 0 mM): 0.4196
In vitro mTORC1 assay, p-4E-BP1(T37/46)/4E-BP1, Mean (mTORC1; Fig. 8f, compound 5 mM, relative to 0 mM): 0.4175
In vitro mTORC1 assay, p-4E-BP1(T37/46)/4E-BP1, Mean (mTORC1; Fig. 8j, Mal-CoA 2 mM, ATP 0 uM, relative to control at 500 uM ATP): 0.1107
In vitro mTORC1 assay, p-4E-BP1(T37/46)/4E-BP1, Mean (mTORC1; Fig. 8j, Mal-CoA 2 mM, ATP 25 uM, relative to control at 500 uM ATP): 0.133
In vitro mTORC1 assay, p-4E-BP1(T37/46)/4E-BP1, Mean (mTORC1; Fig. 8j, Mal-CoA 2 mM, ATP 100 uM, relative to control at 500 uM ATP): 0.267
In vitro mTORC1 assay, p-4E-BP1(T37/46)/4E-BP1, Mean (mTORC1; Fig. 8j, Mal-CoA 2 mM, ATP 500 uM, relative to control at 500 uM ATP): 0.681
In vitro mTORC1 assay, p-4E-BP1(T37/46)/4E-BP1, Mean (mTORC1; Fig. 8j, Mal-CoA 2 mM, ATP 2000 uM, relative to control at 500 uM ATP): 1.021
In vitro mTORC1 assay, p-4E-BP1(T37/46)/4E-BP1, Mean (mTORC1; Fig. 8j, Mal-CoA 2 mM, ATP 5000 uM, relative to control at 500 uM ATP): 1.149
pKi (mTORC1; read-out: Ki (ATP-competitive, human mTORC1)): 3.11
kinase activity of mTORC1 containing non-malonylatable mTOR^K1218R [1]: readily inhibited

C/C=C/C/C=C/CCC(=O)[C@H]1O[C@H]1C(N)=O [cerulenin]
Mal-K/Adh1, Mean ([2]; acc1S1157A yeast): 8.735
Mal-K/Adh1, Mean ([2]; wt yeast): 8.631
lysine malonylation of immunopurified yeast Fas1 ([3]; cerulenin-treated (10 μM, 2 h) vs control): malonylation increasing further
malonylation of immunopurified yeast Tor1 ([3]; control or cerulenin-treated (10 μM, 2 h)): unable to detect malonylation
p-Ypk1(T662)/Ypk1, Mean (TORC2; acc1S1157A yeast): 1.9821
p-Ypk1(T662)/Ypk1, Mean (TORC2; wt yeast): 2.002
phosphorylation of Ypk1^T662 (TORC2 target residue) (TORC2; yeast): did not inhibit
Mal-K/Tubulin, Mean ([4]; ED Fig. 6c, relative to Luc): 1.769
total protein malonylation (Mal-K immunoblot) ([4]; HEK293FT cells, cerulenin treatment): detectable increase
p-Sch9(T737)/Sch9, Mean (TORC1): 0.2682 and 0.4097
TORC1 activity (phosphorylation of Sch9) in vivo (TORC1; cerulenin-treated yeast, Fig. 2a,c): strongly reduced
p-Sch9(T737)/Sch9 (relative TORC1 activity), Mean (TORC1; 20 μM cerulenin 2h): 0.4698
p-Sch9(T737)/Sch9 (relative TORC1 activity), Mean (TORC1; 20 μM cerulenin 3h): 0.1772
p-Sch9(T737)/Sch9 (relative TORC1 activity), Mean (TORC1; 20 μM cerulenin 4h): 0.1415
p-Snf1(T210)/His (Snf1), Mean (Snf1 (yeast AMPK); acc1S1157A yeast): 1.0013
p-Snf1(T210)/His (Snf1), Mean (Snf1 (yeast AMPK); wt yeast): 1.229
RagC/LAMP2 colocalization (Manders' coefficient), Mean [5]: 0.5276
GFP/Adh1 (relative Mal-CoA levels), Mean (Mal-CoA levels; 20 μM cerulenin 2h): 2.242
GFP/Adh1 (relative Mal-CoA levels), Mean (Mal-CoA levels; 20 μM cerulenin 3h): 5.039
GFP/Adh1 (relative Mal-CoA levels), Mean (Mal-CoA levels; 20 μM cerulenin 4h): 7.957
OPP assay (median fluorescence intensity of OPP Alexa Fluor 488, relative to DMSO), Mean (HEK293T cells; HEK293T, n = 6, Fig. 2l): 0.7454
de novo protein synthesis (HEK293T cells): decreased
